The values below come from patent publication US9150553B2, “Carboxamide compounds and their use as calpain inhibitors” (AbbVie Deutschland GmbH & Co. KG, priority 2007, dated 2015).

The test addresses T1, calpain-I isolated from human erythrocytes (Homo sapiens, UniProt P07384).
T1 construct: calpain-I—isolated from human erythrocytes; purchased Calbiochem 208713; host or cells: human erythrocytes (native tissue isolate)
T1 sequence (P07384 1-714): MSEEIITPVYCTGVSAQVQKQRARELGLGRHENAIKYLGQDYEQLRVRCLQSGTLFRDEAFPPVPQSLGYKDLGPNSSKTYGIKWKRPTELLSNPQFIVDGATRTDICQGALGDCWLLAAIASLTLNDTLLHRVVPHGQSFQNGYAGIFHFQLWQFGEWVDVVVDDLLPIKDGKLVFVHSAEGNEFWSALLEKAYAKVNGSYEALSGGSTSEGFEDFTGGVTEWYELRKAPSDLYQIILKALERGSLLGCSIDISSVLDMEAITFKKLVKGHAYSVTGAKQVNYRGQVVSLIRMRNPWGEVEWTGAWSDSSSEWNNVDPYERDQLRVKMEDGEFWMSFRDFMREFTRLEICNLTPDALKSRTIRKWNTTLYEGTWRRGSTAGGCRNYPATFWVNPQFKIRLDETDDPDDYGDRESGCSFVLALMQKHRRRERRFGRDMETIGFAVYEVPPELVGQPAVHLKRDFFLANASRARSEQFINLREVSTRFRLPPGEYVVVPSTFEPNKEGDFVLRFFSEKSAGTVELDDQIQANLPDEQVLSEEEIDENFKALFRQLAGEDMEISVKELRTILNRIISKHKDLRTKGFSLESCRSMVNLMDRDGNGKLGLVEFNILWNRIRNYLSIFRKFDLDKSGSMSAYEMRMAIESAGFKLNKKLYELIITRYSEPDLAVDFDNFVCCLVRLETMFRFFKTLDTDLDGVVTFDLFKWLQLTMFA
T1 sequence (P04632 1-268 partner): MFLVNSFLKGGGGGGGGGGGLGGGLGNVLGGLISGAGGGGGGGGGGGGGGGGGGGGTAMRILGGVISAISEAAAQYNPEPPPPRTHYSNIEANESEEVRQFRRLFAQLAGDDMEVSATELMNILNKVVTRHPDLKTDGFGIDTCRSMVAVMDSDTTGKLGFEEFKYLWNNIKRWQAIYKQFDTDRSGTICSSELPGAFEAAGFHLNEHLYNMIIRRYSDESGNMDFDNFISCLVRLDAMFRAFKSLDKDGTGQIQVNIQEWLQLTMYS
Kind of test: Calpain I enzyme inhibition, kinetic fluorescence assay. The format is biochemical. The following applies: apparent Ki from IC50 by Cheng-Prussoff; pH 7.3, room temperature. As for the experimental part:
The following solutions and buffers were employed: • HBS (for 40 ml): 800 μl 1M HEPES; 2.16 ml 100 mM KCl; 4.8 ml 1M NaCl; 3.59 ml 5% glucose; 60 μl 1M MgSO4; 400 μl 100 mM Na pyruvate, 28.19 ml water; pH 7.2-7.5. • lysis buffer (for 20 ml): 400 μl 1M Tris pH 8.2; 2.74 ml 1M NaCl; 520 μl 0.5M EDTA; 2 ml 10% triton X-100; 0.8 ml (=1:25) CompletePlus (1 tablet/2 ml H2O); 200 μl 100 mM Pefabloc; 13.34 ml water, pH 8.2. • TBST (10×) (for 1I): 100 mM Tris (12.1 g); 1.5M NaCl (87 g); 1% Tween 20 (10 g), adjusted to pH 8. I. Enzyme Inhibition In Vitro: • Testing for blockade of the corresponding enzymic activities was carried out by means of kinetic fluorescence assays (excitation 390 nm, emission 460 nm). • Apparent Ki values were calculated from the experimentally determined IC50 values by the Cheng-Prussoff relation assuming a reversible competitive enzyme inhibition. The Km values of the substrates used under the assay conditions indicated above were: 90 μM (Z-Phe-Arg-AMC, cathepsin B), 10 μM (Z-Gly-Pro-Arg-AMC, cathepsin K), 2 μM (Z-Phe-Arg-AMC, cathepsin L), and 30 μM (Z-Val-Val-Arg-AMC, cathepsin S). • The indicated Ki values are averages of the inhibition constants calculated on the basis of 2 to 4 independent dose-effect plots. • The following assays were used: • 1. Calpain I: • 20 nM calpain-I—isolated from human erythrocytes (Calbiochem #208713), 100 μM Suc-Leu-Tyr-AMC (Bachem #I-1355) as substrate in buffer with 62 mM imidazole, 0.3 mM CaCl2, 0.10% CHAPS, 0.05% BSA, 1 mM DTT at pH 7.3 and room temperature. • 2. Cathepsin B: • 0.25 nM cathepsin B—isolated from human liver (Calbiochem #219362), 100 μM Z-Phe-Arg-AMC (Bachem #I-1160) as substrate 50 mM MES, 2 mM EDTA, 0.05% Brij 35, 2.5 mM L-cysteine, pH 6.0, room temperature. • 3. Cathepsin K: • 3 nM cathepsin K—activated from recombinant human procathepsin K from E. coli (Calbiochem #342001), 10 μM Z-Gly-Pro-Arg-AMC (Biomol #P-142) as substrate in 50 mM MES, 2 mM EDTA, 0.05% Brij 35, 2.5 mM L-cysteine, pH 6.0, room temperature. • 4. Cathepsin L: • 1 nM cathepsin L—isolated from human liver (Calbiochem #219402), 2 μM Z-Phe-Arg-AMC (Bachem #I-1160) as substrate in 50 mM MES, 2 mM EDTA, 0.05% Brij 35, 2.5 mM L-cysteine, pH 6.0, room temperature. • 5. Cathepsin S: • 0.5 nM recombinant human cathepsin S from E. coli (Calbiochem #219343), 20 μM Z-Val-Val-Arg-AMC (Bachem #I-1540) as substrate in 50 mM MES, 2 mM EDTA, 0.05% Brij 35, 2.5 mM L-cysteine, pH 6.0, room temperature. • The results of the in vitro determination are indicated in Table 2. The following abbreviations are used in Table 2: • The “Calpain activity” column, ++ stands for a calpain Ki (Ki(calpain)) of ≦40 nM, + means: 40 nM<Ki(Calpain)≦100 nM, 0 means 100 nM<Ki(Calpain)≦1 μM, − means 1 μM<Ki(Calpain)≦10 μM, −− means Ki(Calpain)>10 μM. • The “Sel. cat. B” column indicates the Ki(cathepsin B)/Ki(calpain) ratio. In this connection, ++ means a Ki(cathepsin B)/Ki(calpain) ratio of ≧30 and + means≦10≦Ki(cathepsin B)/Ki(calpain)<30. • The “Sel. cat. K” column indicates the Ki(cathepsin K)/Ki(calpain) ratio. In this connection, ++ means a Ki(cathepsin K)/Ki(calpain) ratio of ≧30 and + means 10≦Ki(cathepsin K)/Ki(calpain)<30. • The “Sel. cat. L” column indicates the Ki(cathepsin L)/Ki(calpain) ratio. In this connection, ++ means a Ki(cathepsin L)/Ki(calpain) ratio of ≧50 and + means 30≦Ki(cathepsin L)/Ki(calpain)<50. • The “Sel. cat. S” column indicates the Ki(cathepsin S)/Ki(calpain) ratio. […]

For `NC(=O)C1(C(Cc2ccccc2)NC(=O)c2cccnc2-n2ccc(-c3cccc(C(F)(F)F)c3)n2)OCCO1` (stereo not shown) [Compound I-2, N-{1-[2-(Aminocarbonyl)-1,3-dioxolan-2-yl]-2-phenylethyl}-2-{3-[3-(trifluoromethyl)phenyl]-1H-pyrazol-1-yl}nicotinamide], the Ki was > 10 µM.
